We go through three compounds from patent US5519008A, “Derivatives of triterpenoid acids as inhibitors of cell-adhesion molecules ELAM-1 (E-selectin) and LECAM-1 (L-selectin)” (Glycomed Incorporated, priority 1992, dated 1996).

In series [1] the test system is arachidonic acid (AA), murine skin inflammation. Put plainly: arachidonic acid (AA) murine skin (ear) inflammation model. The format is in vivo. As to conditions: 10 μl of 100mg/ml solution applied to the ear immediately after AA; 6mm ear disk weighed 90 minutes later; average of 6 experiments. On the procedure:
For comparison, glycyrrhetinic acid was also tested. […] 10 μl of each compound was applied to the ear. […] 90 minutes later a 6mm disk of each ear was removed, and weighed. […] The results were the average of 6 experiments.

The conditions of series [2]: literature statement, Baren et al., J. Med. Chem. 17(2) (1974) 184-191; cited from earlier work.

In the case of “3β-O-(α-L-fucopyranosyl)-18β-olean-12-en-30-oic Acid [3-0-fucoside-18-β glycyrrhetinic acid]”, the “reduction of the % maximal inflammatory response caused by AA alone” value in series [1] was “about 60%”.
The same measure, in the same setting: the result for `CC1(C)[C@@H](O)CC[C@]2(C)[C@H]3C(=O)C=C4[C@@H]5C[C@@](C)(C(=O)O)CC[C@]5(C)CC[C@@]4(C)[C@]3(C)CC[C@@H]12` [glycyrrhetinic acid] reads “about 60%”.
As for `CC1(C)[C@@H](O)CC[C@]2(C)[C@H]3CC=C4[C@@H]5C[C@@](C)(C(=O)O)CC[C@]5(C)CC[C@@]4(C)[C@]3(C)CC[C@@H]12` [11-deoxoglycyrrhetinic acid], the “aldosterone (DCA)-like activity” value in series [2] is “does not substantially show the DCA activity”.
